Among the test systems are MCC13 cells (VN-MCC); MCC26 cells (VN-MCC); UISO cells (VN-MCC); WAGA cells (VP-MCC); MKL-1 cells (VP-MCC); MKL-2 cells (VP-MCC).
Common to all, as to test: qHTS cell viability (CellTiter-Glo, 72 h; primary and follow-up small molecule screen)
What all share (format): cell-based, human

From paper PMC11822212, “High-throughput screening identifies Aurora kinase B as a critical therapeutic target for Merkel cell carcinoma” (Nature Communications, 2025) come the findings set out here.

Read-outs that look alike come from different tables or passages of the source.

Regarding `O[C@H]1[C@H]2[C@H](O)CCCN2C[C@H]1O` [Swainsonine], in the assay with MCC13 cells (VN-MCC), the “Area under the dose-response curve (AUC) MCC13 Replicate 1” value (from here on “Area … (AUC) MCC13 Replicate 1”) is 474.5, the “Area under the dose-response curve (AUC) MCC13 Replicate 2” value (shortened to “Area … (AUC) MCC13 Replicate 2”) is given as 467.6 and the “Area under the dose-response curve (AUC) MCC13 Replicate 3” value (“Area … (AUC) MCC13 Replicate 3” below) came to 453.7. In the assay with MCC26 cells (VN-MCC), the “Area under the dose-response curve (AUC) MCC26 Replicate 1” value (from here on “Area … (AUC) MCC26 Replicate 1”) is 425.6, the “Area under the dose-response curve (AUC) MCC26 Replicate 2” value (shortened to “Area … (AUC) MCC26 Replicate 2”) is on record as 420.4 and the “Area under the dose-response curve (AUC) MCC26 Replicate 3” value (“Area … (AUC) MCC26 Replicate 3” below) worked out at 449.5. Moreover, in the assay with UISO cells (VN-MCC), the “Area under the dose-response curve (AUC) UISO Replicate 1” value (from here on “Area … (AUC) UISO Replicate 1”) came to 446.0, the “Area under the dose-response curve (AUC) UISO Replicate 2” value (from here on “Area … (AUC) UISO Replicate 2”) came out at 458.3 and the “Area under the dose-response curve (AUC) UISO Replicate 3” value (from here on “Area … (AUC) UISO Replicate 3”) was 417.9. In the assay on WAGA cells (VP-MCC), the “Area under the dose-response curve (AUC) WAGA Replicate 1” value (from here on “Area … (AUC) WAGA Replicate 1”) amounted to 517.4, the “Area under the dose-response curve (AUC) WAGA Replicate 2” value (from here on “Area … (AUC) WAGA Replicate 2”) is on record as 504.3 and the “Area under the dose-response curve (AUC) WAGA Replicate 3” value (from here on “Area … (AUC) WAGA Replicate 3”) stood at 463.6. For the same compound, in the assay with MKL-1 cells (VP-MCC), the “Area under the dose-response curve (AUC) MKL-1 Replicate 1” value (from here on “Area … (AUC) MKL-1 Replicate 1”) worked out at 483.5, the “Area under the dose-response curve (AUC) MKL-1 Replicate 2” value (shortened to “Area … (AUC) MKL-1 Replicate 2”) came to 459.4 and the “Area under the dose-response curve (AUC) MKL-1 Replicate 3” value (“Area … (AUC) MKL-1 Replicate 3” below) came out at 455.2. In addition, in the assay with MKL-2 cells (VP-MCC), the “Area under the dose-response curve (AUC) MKL-2 Replicate 1” value (from here on “Area … (AUC) MKL-2 Replicate 1”) is given as 462.0, the “Area under the dose-response curve (AUC) MKL-2 Replicate 2” value (shortened to “Area … (AUC) MKL-2 Replicate 2”) was found to be 456.2 and the “Area under the dose-response curve (AUC) MKL-2 Replicate 3” value (“Area … (AUC) MKL-2 Replicate 3” below) came out at 445.8.
Regarding `CC(/C=C/C(=O)NO)=C\[C@@H](C)C(=O)c1ccc(N(C)C)cc1` [TSA], in the assay on MCC13 cells (VN-MCC), the “Area … (AUC) MCC13 Replicate 1” value amounted to 419.6, the “Area … (AUC) MCC13 Replicate 2” value was 438.9 and the “Area … (AUC) MCC13 Replicate 3” value was 399.7. Further, in the assay on MCC26 cells (VN-MCC), the “Area … (AUC) MCC26 Replicate 1” value stood at 375.6, the “Area … (AUC) MCC26 Replicate 2” value came out at 383.1 and the “Area … (AUC) MCC26 Replicate 3” value stood at 360.2. In the assay on UISO cells (VN-MCC), the “Area … (AUC) UISO Replicate 1” value stood at 357.7, the “Area … (AUC) UISO Replicate 2” value is reported as 378.3 and the “Area … (AUC) UISO Replicate 3” value worked out at 338.8. In the assay on WAGA cells (VP-MCC), the “Area … (AUC) WAGA Replicate 1” value was found to be 341.0, the “Area … (AUC) WAGA Replicate 2” value worked out at 323.1 and the “Area … (AUC) WAGA Replicate 3” value was found to be 341.7. In addition, in the assay on MKL-1 cells (VP-MCC), the “Area … (AUC) MKL-1 Replicate 1” value came out at 401.2, the “Area … (AUC) MKL-1 Replicate 2” value is reported as 324.1 and the “Area … (AUC) MKL-1 Replicate 3” value stood at 329.2. Moreover, in the assay with MKL-2 cells (VP-MCC), the “Area … (AUC) MKL-2 Replicate 1” value came out at 276.9, the “Area … (AUC) MKL-2 Replicate 2” value is 277.0 and the “Area … (AUC) MKL-2 Replicate 3” value was determined as 326.7.
Turning to `C/C=C(/C)C(=O)O[C@H]1C(C)=C2[C@H]([C@@H]1OC(=O)CCCCCCC)[C@@](C)(OC(C)=O)C[C@H](OC(=O)CCC)[C@@]1(O)[C@H]2OC(=O)[C@@]1(C)O` [Thapsigargin], in the assay on MCC13 cells (VN-MCC) (follow-up screen, MCC13, replicate 1), the “Area … (AUC) MCC13 Replicate 1” value was 289.0. Moreover, the “Area … (AUC) MCC13 Replicate 2” value with MCC13 cells (VN-MCC) (follow-up screen, MCC13, replicate 2) is 272.1. The “Area … (AUC) MCC13 Replicate 3” value in the assay on MCC13 cells (VN-MCC) (follow-up screen, MCC13, replicate 3) is reported as 274.4. In addition, the “Area … (AUC) MCC26 Replicate 1” value in the assay on MCC26 cells (VN-MCC) (follow-up screen, MCC26, replicate 1) is 278.4. In the assay on MCC26 cells (VN-MCC) (follow-up screen, MCC26, replicate 2), the “Area … (AUC) MCC26 Replicate 2” value came to 281.8. Moreover, the “Area … (AUC) MCC26 Replicate 3” value with MCC26 cells (VN-MCC) (follow-up screen, MCC26, replicate 3) is 214.4. Also, the “Area … (AUC) UISO Replicate 1” value with UISO cells (VN-MCC) (follow-up screen, UISO, replicate 1) was 207.4. For the same compound, in the assay on UISO cells (VN-MCC) (follow-up screen, UISO, replicate 2), the “Area … (AUC) UISO Replicate 2” value was found to be 234.5. In the assay with UISO cells (VN-MCC) (follow-up screen, UISO, replicate 3), the “Area … (AUC) UISO Replicate 3” value is given as 207.7. In the assay on WAGA cells (VP-MCC) (follow-up screen, WAGA, replicate 1), the “Area … (AUC) WAGA Replicate 1” value was 336.3. Further, the “Area … (AUC) WAGA Replicate 2” value in the assay on WAGA cells (VP-MCC) (follow-up screen, WAGA, replicate 2) is 303.0. The “Area … (AUC) WAGA Replicate 3” value in the assay on WAGA cells (VP-MCC) (follow-up screen, WAGA, replicate 3) is recorded as 289.2. Also, the “Area … (AUC) MKL-1 Replicate 1” value in the assay on MKL-1 cells (VP-MCC) (follow-up screen, MKL-1, replicate 1) is given as 384.9. In addition, the “Area … (AUC) MKL-1 Replicate 2” value in the assay with MKL-1 cells (VP-MCC) (follow-up screen, MKL-1, replicate 2) is listed as 385.8. Also, the “Area … (AUC) MKL-1 Replicate 3” value with MKL-1 cells (VP-MCC) (follow-up screen, MKL-1, replicate 3) worked out at 395.7. Further, in the assay on MKL-2 cells (VP-MCC) (follow-up screen, MKL-2, replicate 1), the “Area … (AUC) MKL-2 Replicate 1” value worked out at 322.6. Besides, in the assay on MKL-2 cells (VP-MCC) (follow-up screen, MKL-2, replicate 2), the “Area … (AUC) MKL-2 Replicate 2” value was determined as 308.5. Besides, the “Area … (AUC) MKL-2 Replicate 3” value in the assay with MKL-2 cells (VP-MCC) (follow-up screen, MKL-2, replicate 3) came out at 284.8.
